Data as given in US20240067632A1, “WEE1 Degrading Compounds and Uses Thereof” (Bristol-Myers Squibb Company, priority 2022, published 2024).
Like-named read-outs stand apart in the source and are kept apart here.

Key:
[1] = target: T1, WEE1 (Homo sapiens, UniProt P30291+Q96SW2); experiment: WEE1-ePL degradation assay (LentiX-WEE1-ePL-GSPT1-ND cells, InCELL Hunter luminescence, 4 h); type: cell-based; settings: 293T-LentiX WEE1-ePL cells; for DC50: read-out: 293T-LentiX WEE1-ePL Degradation 4 hr (EC50)
T1 construct: C-terminal ePL-tagged (DiscoverX, Fremont, CA) full-length WEE1 expression construct; expressed in transfected cells; host or cells: LentiX-HEK293T (Invitrogen), lentiviral transduction; co-expressing GSPT1-GN (G576N, lacking the first 158 amino acids)
Summary of the method: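 HEK293T cells stably expressing C-terminal ePL-tagged full-length WEE1, 2500 cells/well, treated 4 h at 37° C with a 10-point 3-fold series from 1 or 10 uM. Remaining WEE1-ePL read by InCELL Hunter luminescence after 30 min. EC50 came from a four-parameter logistic fit, with Ymax set from DMSO control.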

[2] = system: MKN45 cells; experiment: MKN45 cell proliferation assay (Cell-Titer-Glo, 120 h); type: cell-based; settings: for EC50: Homo sapiens, MKN-45, 120 h, Cell-Titer-Glo, read-out: MKN45 Cell Prolif. 120 hr (EC50); for MKN45 Cell Prolif. 120 hr (Ymin-Obs): minimal percent of DMSO control observed in the concentrations tested
Summary of the method: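 Growth inhibition was read as blank-corrected Cell-Titer-Glo luminescence expressed as percent DMSO control after 120 h at 37 C, 400 cells/well. Compounds tested in triplicate as 10-point half-log series from 1 or 10 uM, 0.1% DMSO; four-parameter fit gave EC50, and lowest observed percent control was reported as Ymin-obs.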

[3] = lower limit of the fit (0 = luciferase inhibitor, Ymax = DMSO control)
[4] = lower limit of the fit (Ymin=0 luciferase inhibitor, Ymax DMSO control)

SMILES | 293T-LentiX WEE1-ePL Degradation 4 hr (Ymin) [1, 3] | DC50 [1] [nM] | EC50 ([2]; growth inhibition) [nM] | MKN45 Cell Prolif. 120 hr (Ymin-Obs) [2] | 293T-LentiX WEE1-ePL Degradation 4 hr (Ymin) [1, 4] | EC50 [2] [nM]
O=C1CCC(N2Cc3cc(O[C@H]4CCN(Cc5ccc6cccnc6n5)C4)ccc3C2=O)C(=O)N1 (stereo partly drawn) [3-(5-{[(3S)-1-[(1,8-naphthyridin-2-yl)methyl]pyrrolidin-3-yl]oxy}-1-oxo-2,3-dihydro-1H-isoindol-2-yl)piperidine-2,6-dione] | 75 | 292 | 1020 | 65.94 |  | 
Cc1cccc2cc(CN3CC[C@H](Oc4ccc5c(c4)CN(C4CCC(=O)NC4=O)C5=O)C3)ncc12 (stereo partly drawn) [3-(5-{[(3S)-1-[(8-methylisoquinolin-3-yl)methyl]pyrrolidin-3-yl]oxy}-1-oxo-2,3-dihydro-1H-isoindol-2-yl)piperidine-2,6-dione] | 32.22 | 6.41 | 118 | 19.68 |  | 
O=C1CCC(N2Cc3cc(O[C@H]4CCN(Cc5ccc6nc(N7CCOCC7=O)ccc6c5)C4)ccc3C2=O)C(=O)N1 (stereo partly drawn) [3-(1-oxo-5-{[(3S)-1-{[2-(3-oxomorpholin-4-yl)quinolin-6-yl]methyl}pyrrolidin-3-yl]oxy}-2,3-dihydro-1H-isoindol-2-yl)piperidine-2,6-dione] | 32 | 2.43 | 2.91 | 6.88 |  | 
Cc1cccc2cnc(CN3CC[C@H](Oc4ccc5c(c4)CN(C4CCC(=O)NC4=O)C5=O)C3)cc12 (stereo partly drawn) [3-(5-{[(3S)-1-[(5-methylisoquinolin-3-yl)methyl]pyrrolidin-3-yl]oxy}-1-oxo-2,3-dihydro-1H-isoindol-2-yl)piperidine-2,6-dione] | 31.91 | 4.62 | 86.1 | 19.01 |  | 
O=C1CC[C@H](N2Cc3cc(O[C@H]4CCN(Cc5cc(C(F)(F)F)c6nc(C7CCOCC7)ccc6c5)C4)ccc3C2=O)C(=O)N1 [(3S)-3-(5-{[(3S)-1-{[2-(oxan-4-yl)-8-(trifluoromethyl)quinolin-6-yl]methyl}pyrrolidin-3-yl]oxy}-1-oxo-2,3-dihydro-1H-isoindol-2-yl)piperidine-2,6-dione] |  | 2.48 |  | 2.25 | 42.83 | 2.99
O=C1CCC(N2Cc3cc(O[C@@H]4CCN(Cc5cnc6ccccc6c5)C4)ccc3C2=O)C(=O)N1 (stereo in doubt) [rel-3-(1-oxo-5-{[(3R)-1-[(quinolin-3-yl)methyl]pyrrolidin-3-yl]oxy}-2,3-dihydro-1H-isoindol-2-yl)piperidine-2,6-dione] | 26.82 | 6.57 | 57 | 11.39 |  | 
O=C1CCC(N2Cc3cc(O[C@@H]4CN(Cc5ccc6nc([C@@H]7CCOC7)ccc6c5)C[C@@H]4F)ccc3C2=O)C(=O)N1 (stereo partly drawn) [3-(5-{[(3R,4S)-4-fluoro-1-({2-[(3S)-oxolan-3-yl]quinolin-6-yl}methyl)pyrrolidin-3-yl]oxy}-1-oxo-2,3-dihydro-1H-isoindol-2-yl)piperidine-2,6-dione] |  | 5.69 |  | 10.88 | 33.6 | 9.42
O=C1CCC(N2Cc3cc(O[C@@H]4CN(Cc5ccc6nc([C@H]7CCOC7)ccc6c5)C[C@@H]4F)ccc3C2=O)C(=O)N1 (stereo partly drawn) [3-(5-{[(3R,4S)-4-fluoro-1-({2-[(3R)-oxolan-3-yl]quinolin-6-yl}methyl)pyrrolidin-3-yl]oxy}-1-oxo-2,3-dihydro-1H-isoindol-2-yl)piperidine-2,6-dione] |  | 3.84 |  | 13.2 | 30.72 | 4.96
CO[C@H]1CC[C@](C)(Nc2ccc3cc(CN4CC[C@H](Oc5ccc6c(c5)CN(C5CCC(=O)NC5=O)C6=O)C4)ccc3n2)CC1 (stereo partly drawn) [3-(1-oxo-5-{[(3S)-1-[(2-{[(1r,4r)-4-methoxy-1-methylcyclohexyl]amino}quinolin-6-yl)methyl]pyrrolidin-3-yl]oxy}-2,3-dihydro-1H-isoindol-2-yl)piperidine-2,6-dione] | 30 | 5.36 | 4.2 | 8.155 |  | 
O=C1CCC(N2Cc3cc(O[C@H]4CCN(Cc5cc6ccc(C7CCOCC7)cc6cn5)C4)ccc3C2=O)C(=O)N1 (stereo partly drawn) [3-(5-{[(3S)-1-{[7-(oxan-4-yl)isoquinolin-3-yl]methyl}pyrrolidin-3-yl]oxy}-1-oxo-2,3-dihydro-1H-isoindol-2-yl)piperidine-2,6-dione] | 29.75 | 1.46 | 2.09 | 8.822 |  | 
O=C1CCC(N2Cc3cc(O[C@H]4CCN(Cc5ccc6nc(N7C[C@H]8C[C@@H](C7)O8)ncc6c5)C4)ccc3C2=O)C(=O)N1 (stereo partly drawn) [3-(5-{[(3S)-1-({2-[(1R,5S)-6-oxa-3-azabicyclo[3.1.1]heptan-3-yl]quinazolin-6-yl}methyl)pyrrolidin-3-yl]oxy}-1-oxo-2,3-dihydro-1H-isoindol-2-yl)piperidine-2,6-dione] | 39 | 20.2 | 16.4 | 13.42 |  | 
Cc1nc2ccccc2cc1CN1CC[C@H](Oc2ccc3c(c2)C(=O)N(C2CCC(=O)NC2=O)C3)C1 (stereo partly drawn) [3-(6-{[(3S)-1-[(2-methylquinolin-3-yl)methyl]pyrrolidin-3-yl]oxy}-1-oxo-2,3-dihydro-1H-isoindol-2-yl)piperidine-2,6-dione] | 87.055 |  |  | 79.9 |  | 
COC[C@@H]1CN(Cc2ccc3nc(C4CCN(C(C)=O)CC4)ncc3c2)C[C@H]1Oc1ccc2c(c1)CN([C@H]1CCC(=O)NC1=O)C2=O [(3S)-3-(5-{[(3S,4S)-1-{[2-(1-acetylpiperidin-4-yl)quinazolin-6-yl]methyl}-4-(methoxymethyl)pyrrolidin-3-yl]oxy}-1-oxo-2,3-dihydro-1H-isoindol-2-yl)piperidine-2,6-dione] |  | 11.9 |  | 9.28 | 26.93 | 3.54
O=C1CCC(N2Cc3cc(O[C@H]4CCN(Cc5ccc6nc(C(F)F)ccc6c5)C4)ccc3C2=O)C(=O)N1 (stereo partly drawn) [3-(5-{[(3S)-1-{[2-(difluoromethyl)quinolin-6-yl]methyl}pyrrolidin-3-yl]oxy}-1-oxo-2,3-dihydro-1H-isoindol-2-yl)piperidine-2,6-dione] | 29.42 | 2.96 | 7.17 | 9.875 |  | 
COC[C@@H]1CCC[C@@H]1c1ccc2cc(CN3CC[C@H](Oc4ccc5c(c4)CN(C4CCC(=O)NC4=O)C5=O)C3)ccc2n1 (stereo partly drawn) [3-(5-{[(3S)-1-({2-[(1S,2R)-2-(methoxymethyl)cyclopentyl]quinolin-6-yl}methyl)pyrrolidin-3-yl]oxy}-1-oxo-2,3-dihydro-1H-isoindol-2-yl)piperidine-2,6-dione] |  | 0.334 |  | 11.34 | 26.36 | 5.76
O=C1CCC(N2Cc3cc(O[C@H]4CCN(Cc5ccc6nc(N7C[C@H]8C[C@@H]7CO8)ccc6c5)C4)ccc3C2=O)C(=O)N1 (stereo partly drawn) [3-(5-{[(3S)-1-({2-[(1R,4R)-2-oxa-5-azabicyclo[2.2.1]heptan-5-yl]quinolin-6-yl}methyl)pyrrolidin-3-yl]oxy}-1-oxo-2,3-dihydro-1H-isoindol-2-yl)piperidine-2,6-dione] | 33 | 5.67 | 6.19 | 9.745 |  | 
O=C1CCC(N2Cc3cc(O[C@H]4CCN(Cc5cc6cc(F)ccc6cn5)C4)c(F)cc3C2=O)C(=O)N1 (stereo partly drawn) [3-(6-fluoro-5-{[(3S)-1-[(6-fluoroisoquinolin-3-yl)methyl]pyrrolidin-3-yl]oxy}-1-oxo-2,3-dihydro-1H-isoindol-2-yl)piperidine-2,6-dione] | 36 | 14.3 | 104 | 11.55 |  | 
O=C1CCC(N2Cc3cc(O[C@H]4CCN(Cc5ccc6nc([C@@H]7CC[C@H](O)C7)ccc6c5)C4)ccc3C2=O)C(=O)N1 (stereo partly drawn) [3-(5-{[(3S)-1-({2-[(1R,3S)-3-hydroxycyclopentyl]quinolin-6-yl}methyl)pyrrolidin-3-yl]oxy}-1-oxo-2,3-dihydro-1H-isoindol-2-yl)piperidine-2,6-dione] | 32 | 3.33 | 0.655 | 7.585 |  | 
O=C1CCC(N2Cc3cc(O[C@@H]4CN(Cc5ccc6nc(C7CCOCC7)ccc6c5)C[C@@H]4F)ccc3C2=O)C(=O)N1 (stereo partly drawn) [3-(5-{[(3R,4S)-4-fluoro-1-{[2-(oxan-4-yl)quinolin-6-yl]methyl}pyrrolidin-3-yl]oxy}-1-oxo-2,3-dihydro-1H-isoindol-2-yl)piperidine-2,6-dione] | 36 | 13.2 | 7.13 | 8.923 |  | 
